According to PubChem BioAssay AID260 (DTP/NCI, 2004):
Where “and” joins values, the source holds several entries; their conditions need not be identical. Equal entries are not always repeated. Toxic doses and inconclusive results are not listed. Rule for the calls: active = survival T/C of 150% or more; inactive = T/C below 125% in these data.

Test system: CD2F1 mice, intracerebral L1210 leukemia, survival T/C
Experiment: NCI In Vivo Anticancer Drug Screen. Data for tumor model L1210 Leukemia (intracerebral) in CD2F1 (CDF1) mice
Settings: higher = longer survival
Description: The antitumor activity of compounds was measured in mice bearing transplantable tumors. Survival or tumor size were measured and the results are expressed as the measurement made in the treated group (T) divided by the measurement made in the vehicle treated control group (C). The tumor model used in this assay is L1210 Leukemia (intracerebral) in CD2F1 (CDF1) mice

[1] = endpoint: median survival time, dose: 8.0 mg/kg/injection, schedule: Q01DX009 (ip), vehicle: saline
[2] = endpoint: median survival time, dose: 16.0 mg/kg/injection, schedule: Q01DX005 (ip), vehicle: saline with Tween-80
[3] = endpoint: median survival time, dose: 32.0 mg/kg/injection, schedule: Q01DX005 (ip), vehicle: saline with Tween-80
[4] = endpoint: median survival time, dose: 64.0 mg/kg/injection, schedule: Q01DX005 (ip), vehicle: saline with Tween-80
[5] = endpoint: median survival time, dose: 128.0 mg/kg/injection, schedule: Q01DX005 (ip), vehicle: saline with Tween-80
[6] = endpoint: mean survival time, dose: 1.0 mg/kg/injection, schedule: Q01DX009 (ip), vehicle: saline
[7] = endpoint: mean survival time, dose: 4.0 mg/kg/injection, schedule: Q01DX009 (ip), vehicle: saline
[8] = endpoint: median survival time, dose: 4.0 mg/kg/injection, schedule: Q01DX001 (ip), vehicle: other
[9] = endpoint: median survival time, dose: 16.0 mg/kg/injection, schedule: Q01DX001 (ip), vehicle: other
[10] = endpoint: median survival time, dose: 32.0 mg/kg/injection, schedule: Q01DX001 (ip), vehicle: other

Measured: T/C

CN(C)N=Nc1ccc(C(=O)O)cc1
inactive: endpoint: mean survival time, dose: 10.0 mg/kg/injection, schedule: Q01DX007 (ip), vehicle: DMSO 91 % of control | endpoint: mean survival time, dose: 20.0 mg/kg/injection, schedule: Q01DX007 (ip), vehicle: DMSO 96 % of control | endpoint: mean survival time, dose: 25.0 mg/kg/injection, schedule: Q01DX009 (ip), vehicle: saline 104 % of control | endpoint: mean survival time, dose: 40.0 mg/kg/injection, schedule: Q01DX007 (ip), vehicle: DMSO 108 % of control | endpoint: mean survival time, dose: 50.0 mg/kg/injection, schedule: Q01DX009 (ip), vehicle: saline 119 % of control | endpoint: mean survival time, dose: 80.0 mg/kg/injection, schedule: Q01DX007 (ip), vehicle: DMSO 122 % of control | endpoint: mean survival time, dose: 200.0 mg/kg/injection, schedule: Q01DX009 (ip), vehicle: saline 113 % of control

CC/C(=C(/CC)c1ccc(O)cc1)c1ccc(O)cc1
inactive: [1] 104 % of control and 113 % of control | [2] 93 % of control and 106 % of control | endpoint: median survival time, dose: 16.0 mg/kg/injection, schedule: Q01DX009 (ip), vehicle: saline 104 % of control and 113 % of control | [3] 93 % of control and 103 % of control | endpoint: median survival time, dose: 32.0 mg/kg/injection, schedule: Q01DX009 (ip), vehicle: saline 98 % of control and 112 % of control | [4] 103 % of control and 116 % of control | endpoint: median survival time, dose: 64.0 mg/kg/injection, schedule: Q01DX009 (ip), vehicle: saline 105 % of control and 112 % of control | [5] 103 % of control and 105 % of control | endpoint: median survival time, dose: 256.0 mg/kg/injection, schedule: Q01DX009 (ip), vehicle: saline 112 % of control | endpoint: median survival time, dose: 512.0 mg/kg/injection, schedule: Q01DX009 (ip), vehicle: saline 86 % of control

CCCCN(C)N=Nc1c(C(N)=O)n[nH]c1C
inactive: [2] 108 % of control | [3] 112 % of control | [4] 96 % of control

CN(CCO)C1=C(N2CC2)C(=O)C(N(C)CCO)=C(N2CC2)C1=O
inactive: endpoint: mean survival time, dose: 0.5 mg/kg/injection, schedule: Q01DX009 (ip), vehicle: saline 106 % of control and 109 % of control | [6] 111 % of control | [7] 101 % of control

O=NN(CCCl)C(=O)NC1CCCCC1
active: [9] 177 % of control | [10] 415 % of control | endpoint: median survival time, dose: 64.0 mg/kg/injection, schedule: Q01DX001 (ip), vehicle: saline + alcohol 389 % of control | endpoint: median survival time, dose: 128.0 mg/kg/injection, schedule: Q01DX001 (ip), vehicle: saline + alcohol 168 % of control
inactive: [8] 112 % of control | endpoint: median survival time, dose: 8.0 mg/kg/injection, schedule: Q01DX001 (ip), vehicle: saline + alcohol 106 % of control | endpoint: median survival time, dose: 16.0 mg/kg/injection, schedule: Q01DX001 (ip), vehicle: saline + alcohol 118 % of control | endpoint: median survival time, dose: 256.0 mg/kg/injection, schedule: Q01DX001 (ip), vehicle: saline + alcohol 90 % of control

CNc1nc(N(C)C)nc(N(C)C)n1
inactive: endpoint: median survival time, dose: 12.5 mg/kg/injection, schedule: Q01DX009 (ip), vehicle: saline 98 % of control and 114 % of control

C[n+]1ccc(Nc2ccc(NC(=O)c3ccc(Nc4cc[n+](C)c5ccc(N)cc45)cc3N)cc2)cc1
inactive: [6] 103 % of control | endpoint: mean survival time, dose: 2.0 mg/kg/injection, schedule: Q01DX009 (ip), vehicle: saline 117 % of control | [7] 119 % of control | endpoint: mean survival time, dose: 8.0 mg/kg/injection, schedule: Q01DX009 (ip), vehicle: saline 120 % of control | endpoint: mean survival time, dose: 16.0 mg/kg/injection, schedule: Q01DX009 (ip), vehicle: saline 123 % of control

CC1CCC(NC(=O)N(CCCl)N=O)CC1 (stereo not given)
inactive: [8] 123 % of control | endpoint: median survival time, dose: 6.25 mg/kg/injection, schedule: Q01DX001 (ip), vehicle: DMSO 116 % of control | endpoint: median survival time, dose: 6.25 mg/kg/injection, schedule: Q01DX001 (ip), vehicle: saline + alcohol 116 % of control | endpoint: median survival time, dose: 6.25 mg/kg/injection, schedule: Q01DX001 (oral), vehicle: saline + alcohol 109 % of control | endpoint: median survival time, dose: 12.5 mg/kg/injection, schedule: Q01DX001 (ip), vehicle: DMSO 116 % of control | endpoint: median survival time, dose: 12.5 mg/kg/injection, schedule: Q01DX001 (ip), vehicle: saline + alcohol 119 % of control | endpoint: median survival time, dose: 12.5 mg/kg/injection, schedule: Q01DX001 (oral), vehicle: saline + alcohol 109 % of control | endpoint: median survival time, dose: 25.0 mg/kg/injection, schedule: Q01DX001 (oral), vehicle: saline + alcohol 120 % of control | endpoint: median survival time, dose: 50.0 mg/kg/injection, schedule: Q01DX001 (ip), vehicle: DMSO 123 % of control | endpoint: median survival time, dose: 64.0 mg/kg/injection, schedule: Q01DX001 (ip), vehicle: other 88 % of control | endpoint: median survival time, dose: 100.0 mg/kg/injection, schedule: Q01DX001 (ip), vehicle: saline + alcohol 92 % of control
active: [9] 166 % of control | endpoint: median survival time, dose: 25.0 mg/kg/injection, schedule: Q01DX001 (ip), vehicle: saline + alcohol 166 % of control | [10] 333 % of control | endpoint: median survival time, dose: 50.0 mg/kg/injection, schedule: Q01DX001 (ip), vehicle: saline + alcohol 155 % of control | endpoint: median survival time, dose: 100.0 mg/kg/injection, schedule: Q01DX001 (ip), vehicle: DMSO 169 % of control | endpoint: median survival time, dose: 100.0 mg/kg/injection, schedule: Q01DX001 (oral), vehicle: saline + alcohol 246 % of control

C[C@]12C=CC(=O)C=C1CC[C@@H]1[C@@H]2CC[C@]2(C)OC(=O)CC[C@@H]12
inactive: endpoint: median survival time, dose: 8.0 mg/kg/injection, schedule: Q01DX009 (ip), vehicle: saline with Tween-80 95 % of control and 111 % of control | endpoint: median survival time, dose: 16.0 mg/kg/injection, schedule: Q01DX009 (ip), vehicle: saline with Tween-80 98 % of control and 102 % of control | endpoint: median survival time, dose: 32.0 mg/kg/injection, schedule: Q01DX009 (ip), vehicle: saline with Tween-80 101 % of control and 102 % of control | endpoint: median survival time, dose: 64.0 mg/kg/injection, schedule: Q01DX009 (ip), vehicle: saline with Tween-80 93 % of control and 102 % of control | endpoint: median survival time, dose: 128.0 mg/kg/injection, schedule: Q01DX009 (ip), vehicle: saline with Tween-80 90 % of control and 98 % of control | endpoint: median survival time, dose: 256.0 mg/kg/injection, schedule: Q01DX009 (ip), vehicle: saline with Tween-80 90 % of control and 98 % of control

COc1cc([C@@H]2c3cc4c(cc3[C@@H](OC3OC5CO[C@@H](c6cccs6)OC5C(O)C3O)[C@H]3COC(=O)[C@H]23)OCO4)cc(OC)c1O (stereo not given in full)
inactive: endpoint: median survival time, dose: 0.25 mg/kg/injection, schedule: Q01DX009 (ip), vehicle: saline 101 % of control and 108 % of control | endpoint: median survival time, dose: 0.5 mg/kg/injection, schedule: Q01DX009 (ip), vehicle: saline 108 % of control and 111 % of control | endpoint: median survival time, dose: 1.0 mg/kg/injection, schedule: Q01DX009 (ip), vehicle: saline 111 % of control and 116 % of control | endpoint: median survival time, dose: 2.0 mg/kg/injection, schedule: Q01DX009 (ip), vehicle: saline 124 % of control and 114 % of control | endpoint: median survival time, dose: 4.0 mg/kg/injection, schedule: Q01DX009 (ip), vehicle: saline 122 % of control and 104 % of control | [1] 88 % of control

CCCCN(C)N=Nc1ccc([N+](=O)[O-])cc1C(N)=O
inactive: endpoint: mean survival time, dose: 100.0 mg/kg/injection, schedule: Q01DX009 (ip), vehicle: saline with Tween-80 112 % of control | endpoint: mean survival time, dose: 200.0 mg/kg/injection, schedule: Q01DX009 (ip), vehicle: saline with Tween-80 122 % of control | endpoint: mean survival time, dose: 400.0 mg/kg/injection, schedule: Q01DX009 (ip), vehicle: saline with Tween-80 100 % of control | endpoint: mean survival time, dose: 600.0 mg/kg/injection, schedule: Q01DX009 (ip), vehicle: saline with Tween-80 89 % of control | [3] 102 % of control | [4] 108 % of control | [5] 110 % of control | endpoint: median survival time, dose: 256.0 mg/kg/injection, schedule: Q01DX005 (ip), vehicle: saline with Tween-80 103 % of control

CC[C@H]1CN2CCc3cc(OC)c(OC)cc3[C@@H]2C[C@@H]1C[C@H]1NCCc2cc(OC)c(OC)cc21
inactive: endpoint: median survival time, dose: 2.0 mg/kg/injection, schedule: Q01DX005 (ip), vehicle: Klucel (hydroxypropylcellulose) (HPC) 98 % of control | endpoint: median survival time, dose: 4.0 mg/kg/injection, schedule: Q01DX005 (ip), vehicle: Klucel (hydroxypropylcellulose) (HPC) 101 % of control | endpoint: median survival time, dose: 8.0 mg/kg/injection, schedule: Q01DX005 (ip), vehicle: Klucel (hydroxypropylcellulose) (HPC) 115 % of control

CN(C)C1=C(N2CC2)C(=O)C(N(C)C)=C(N2CC2)C1=O
inactive: endpoint: mean survival time, dose: 0.75 mg/kg/injection, schedule: Q04DX003 (ip), vehicle: saline 122 % of control and 110 % of control
active: endpoint: mean survival time, dose: 1.5 mg/kg/injection, schedule: Q04DX003 (ip), vehicle: saline 152 % of control and 154 % of control | endpoint: mean survival time, dose: 3.0 mg/kg/injection, schedule: Q04DX003 (ip), vehicle: saline 156 % of control and 172 % of control
